Assays:
Type in all cases: cell-based
[1] = tested on: SK-BR-3 cells (HER2 overexpressing cell line); test: SK-BR-3 cell proliferation inhibitory activity (CellTiter-Glo, 120 hours); conditions: Homo sapiens
Summary of the method: (§1)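 GI50 derived from % growth versus control from CellTiter-Glo luminescence, each test run three times. SK-BR-3 and BT-474 are seeded 48 h ahead at 5000/well and dosed at 0.2 nM–10 μM. N-87 (5000/well) gets […]–5 μM and HaCaT (3000/well) gets 0.8 nM–45 μM, both seeded 24 h ahead.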

[2] = tested on: N-87 cells (HER2 overexpressing cell line); test: N-87 cell proliferation inhibitory activity (CellTiter-Glo, 72 hours)
Experimental: To evaluate the cell proliferation inhibitory activity of the compound according to the present invention on HER2 and EGFR kinases, the following method was performed using HER2 overexpressing cell lines (SK-BR-3, BT-474, and N-87) and EGFR expressing cell line (HaCaT).
McCOY'S 5A supplemented with 10% FBS was used for SK-BR-3 cells, RPMI-1640 medium supplemented with 20% FBS was used for BT-474 cancer cells, and RPMI-1640 medium supplemented with 10% FBS was used for N-87 cancer cells. DMEM supplemented with 10% FBS was used for HaCaT cells.
For SK-BR-3 cells, 5000 cells were aliquoted into each well of a white clear bottom 96 well plate (Corning) 48 hours before treatment with the compounds of Examples. For BT-474 cells, 5000 cells were aliquoted into each well of a white clear bottom 96 well plate (Corning) 48 hours before treatment with the compounds of Examples. For N-87 cells, 5000 cells were aliquoted into each well of a white clear bottom 96 well plate (Corning) 24 hours before treatment with the compounds of Examples. For HaCaT cells, 3000 cells were aliquoted into each well of a white clear bottom 96 well plate (Corning) 24 hours before treatment with the compounds of Examples. For SK-BR-3 cells and BT-474 cells, the compounds of Examples were diluted in dimethyl sulfoxide (three-fold dilution, a total of 11 concentrations) and injected each in an amount of 1 μl to a final concentration of 0.2 nM to 10 μM. For N-87 cells, the compounds of Examples were diluted in dimethyl sulfoxide (five-fold dilution, a total of 11 concentrations) and injected each in an amount of 0.5 μl to a final concentration of […] to 5 μM. For HaCaT cells, the compounds of Examples were diluted in dimethyl sulfoxide (three-fold dilution, a total of 11 concentrations) and injected each in an amount of 0.5 μl to a final concentration of 0.8 nM to 45 μM. For the measurement of living cells, the cells were stored at room temperature for 10 minutes using CellTiter-Glo cell viability reagent (Promega) after a certain period of time (SK-BR-3: 120 hours, BT-474: 120 hours, N-87: 72 hours, and HaCaT: 72 hours) post treatment with the compounds of Examples, and the luminescence intensity thereof was measured using a reader (SynergyNeo, Biotek). Each test was repeated three times.
The result values were calculated as a cell growth rate (%) compared to those of the control group. A graph was created using the GraphPad Prism version 5.0 program, and GI50 values were calculated.

[3] = tested on: BT-474 cells (HER2 overexpressing cell line); test: BT-474 cell proliferation inhibitory activity (CellTiter-Glo, 120 hours); conditions: Homo sapiens
Summary of the method: as §1

[4] = tested on: HaCaT cells (EGFR expressing cell line); test: HaCaT cell proliferation inhibitory activity (CellTiter-Glo, 72 hours); conditions: Homo sapiens
Summary of the method: as §1

| GI50 [1] | GI50 [3] | Compound | GI50 [2] | GI50 [4] |
| --- | --- | --- | --- | --- |
| ≤ 150 nM | ≤ 150 nM | C=CC(=O)N1CC[C@@H](Oc2cc3c(Nc4cc(-c5ccc(F)cc5F)ccc4OC)ncnc3cc2OC)[C@H](F)C1 (relative stereo) [Example 171, 1-(trans-4-((4-((2′,4′-difluoro-4-methoxy-[1,1′-biphenyl]-3-yl)amino)-7-methoxy-quinazolin-6-yl)oxy)-3-fluoropiperidin-1-yl)prop-2-en-1-one] | ≤ 150 nM | ≤ 150 nM |
| ≤ 150 nM | ≤ 150 nM | C=CC(=O)N1CC[C@H](Oc2cc3c(Nc4cc(-c5ccco5)ccc4OC)ncnc3cc2OC)[C@H](F)C1 (relative stereo) [Example 181, 1-(cis-3-fluoro-4-((4-((5-(furan-2-yl)-2-methoxyphenyl)amino)-7-methoxy-quinazolin-6-yl)oxy)piperidin-1-yl)prop-2-en-1-one] | ≤ 150 nM | ≤ 150 nM |
| ≤ 150 nM | ≤ 150 nM | C=CC(=O)N1CC[C@H](Oc2cc3c(Nc4cc(-c5ccc(F)cc5F)ccc4OC)ncnc3cc2OC)[C@H](F)C1 (relative stereo) [Example 182, 1-(cis-4-((4-((2′,4′-difluoro-4-methoxy-[1,1′-biphenyl]-3-yl)amino)-7-methoxy-quinazolin-6-yl)oxy)-3-fluoropiperidin-1-yl)prop-2-en-1-one] | ≤ 150 nM | ≤ 150 nM |
|  | ≤ 150 nM | C=CC(=O)N1CCC(Oc2cc3c(Nc4cc(-c5ccc(F)c(N)c5F)ccc4OC)ncnc3cc2OC)CC1 [Example 158, 1-(4-((4-((3′-amino-2′,4′-difluoro-4-methoxy-[1,1′-biphenyl]-3-yl)amino)-7-methoxy-quinazolin-6-yl)oxy)piperidin-1-yl)prop-2-en-1-one] | ≤ 150 nM | ≤ 150 nM |
|  | ≤ 150 nM | C=CC(=O)N1CCC(Oc2cc3c(Nc4cc(-c5ccc(F)c(N6CCC6)c5)ccc4OC)ncnc3cc2OC)CC1 [Example 159, 1-(4-((4-((3′-(azetidin-1-yl)-4′-fluoro-4-methoxy-[1,1′-biphenyl]-3-yl)amino)-7-methoxy-quinazolin-6-yl)oxy)piperidin-1-yl)prop-2-en-1-one] | ≤ 150 nM | 150 to 1000 nM |
|  | ≤ 150 nM | C=CC(=O)N1CCC(Oc2cc3c(Nc4cc(-c5ccc(F)c(O)c5)ccc4OC)ncnc3cc2OC)CC1 [Example 168, 1-(4-((4-((4′-fluoro-3′-hydroxy-4-methoxy-[1,1′-biphenyl]-3-yl)amino)-7-methoxy-quinazolin-6-yl)oxy)piperidin-1-yl)prop-2-en-1-one] | ≤ 150 nM | 150 to 1000 nM |
|  | ≤ 150 nM | C=CC(=O)N1CCC(Oc2cc3c(Nc4cc(-c5cc(N)c(F)cc5F)ccc4OC)ncnc3cc2OC)CC1 [Example 170, 1-(4-((4-((5′-amino-2′,4′-difluoro-4-methoxy-[1,1′-biphenyl]-3-yl)amino)-7-methoxy-quinazolin-6-yl)oxy)piperidin-1-yl)prop-2-en-1-one] | ≤ 150 nM | ≤ 150 nM |
|  | ≤ 150 nM | C=CC(=O)N1CC[C@@H](Oc2cc3c(Nc4cc(-c5ccco5)ccc4OC)ncnc3cc2OC)[C@H](F)C1 [Example 173, 1-((3R,4R)-3-fluoro-4-((4-((5-(furan-2-yl)-2-methoxyphenyl)amino)-7-methoxy-quinazolin-6-yl)oxy)piperidin-1-yl)prop-2-en-1-one] | ≤ 150 nM | ≤ 150 nM |
|  | ≤ 150 nM | C=CC(=O)N1CCC(Oc2cc3c(Nc4cc(-c5scc6c5OCCO6)ccc4OC)ncnc3cc2OC)CC1 [Example 176, 1-(4-((4-((5-(2,3-dihydrothieno [3,4-b][1,4]dioxin-5-yl)-2-methoxyphenyl)amino)-7-methoxy-quinazolin-6-yl)oxy)piperidin-1-yl)prop-2-en-1-one] | ≤ 150 nM | ≤ 150 nM |
|  | ≤ 150 nM | C=CC(=O)N1CC[C@@H](Oc2cc3c(Nc4cc(-c5ccc(F)cc5F)ccc4OC)ncnc3cc2OC)[C@@H](F)C1 [Example 189, 1-((3S,4R)-4-((4-((2′,4′-difluoro-4-methoxy-[1,1′-biphenyl]-3-yl)amino)-7-methoxy-quinazolin-6-yl)oxy)-3-fluoropiperidin-1-yl)prop-2-en-1-one] | ≤ 150 nM | ≤ 150 nM |
|  | ≤ 150 nM | C=CC(=O)N1CCC(Oc2cc3c(Nc4cc(-c5c(F)cc(F)cc5F)ccc4OC)ncnc3cc2OC)CC1 [Example 190, 1-(4-((7-methoxy-4-((2′,4′,6′-trifluoro-4-methoxy-[1,1′-biphenyl]-3-yl)amino)quinazolin-6-yl)oxy)piperidin-1-yl)prop-2-en-1-one] | ≤ 150 nM | ≤ 150 nM |
|  | ≤ 150 nM | C=CC(=O)N1CCC(Oc2cc3c(Nc4cc(-c5ccc(F)cc5Cl)ccc4OC)ncnc3cc2OC)CC1 [Example 191, 1-(4-((4-((2′-chloro-4′-fluoro-4-methoxy-[1,1′-biphenyl]-3-yl)amino)-7-methoxy-quinazolin-6-yl)oxy)piperidin-1-yl)prop-2-en-1-one] | ≤ 150 nM | ≤ 150 nM |
|  | ≤ 150 nM | C=CC(=O)N1CCC(Oc2cc3c(Nc4cc(-c5cc(C(F)(F)F)ccc5F)ccc4OC)ncnc3cc2OC)CC1 [Example 192, 1-(4-((4-((2′-fluoro-4-methoxy-5′-(trifluoromethyl)-[1,1′-biphenyl]-3-yl)amino)-7-methoxy-quinazolin-6-yl)oxy)piperidin-1-yl)prop-2-en-1-one] | ≤ 150 nM | ≤ 150 nM |
|  | ≤ 150 nM | C=CC(=O)N1CCC(Oc2cc3c(Nc4cc(-c5cccc(C=C)c5)ccc4OC)ncnc3cc2OC)CC1 [Example 215, 1-(4-((7-methoxy-4-((4-methoxy-3′-vinyl-[1,1′-biphenyl]-3-yl)amino)quinazolin-6-yl)oxy)piperidin-1-yl)prop-2-en-1-one] | ≤ 150 nM | 150 to 1000 nM |
|  | ≤ 150 nM | C=CC(=O)N1CCC(Oc2cc3c(Nc4cc(-c5cccc(NC(C)=O)c5)ccc4OC)ncnc3cc2OC)CC1 [Example 224, N-(3′-((6-((1-acryloyl-piperidin-4-yl)oxy)-7-methoxy-quinazolin-4-yl)amino)-4′-methoxy-[1,1′-biphenyl]-3-yl)acetamide] | ≤ 150 nM | ≤ 150 nM |
|  | 150 to 1000 nM | C=CC(=O)N1CCC(Oc2cc3c(Nc4cc(-c5cccc(N6CCC6)c5)ccc4OC)ncnc3cc2OC)CC1 [Example 225, 1-(4-((4-((3′-(azetidin-1-yl)-4-methoxy-[1,1′-biphenyl]-3-yl)amino)-7-methoxy-quinazolin-6-yl)oxy)piperidin-1-yl)prop-2-en-1-one] | ≤ 150 nM | > 1000 nM |
|  | ≤ 150 nM | C=CC(=O)N1CCC(Oc2cc3c(Nc4cc(-c5ccc(F)c(NC(C)=O)c5)ccc4OC)ncnc3cc2OC)CC1 [Example 226, N-(3′-((6-((1-acryloyl-piperidin-4-yl)oxy)-7-methoxy-quinazolin-4-yl)mino)-4-fluoro-4′-methoxy-[1,1'-biphenyl]-3-yl)acetamide] | ≤ 150 nM | > 1000 nM |
|  | ≤ 150 nM | C=CC(=O)N1CCC(Oc2cc3c(Nc4cc(-c5ccc(F)c(N(C)C)c5)ccc4OC)ncnc3cc2OC)CC1 [Example 229, 1-(4-((4-((3′-(dimethylamino)-4′-fluoro-4-methoxy-[1,1′-biphenyl]-3-yl)amino)-7-methoxy-quinazolin-6-yl)oxy)piperidin-1-yl)prop-2-en-1-one] | ≤ 150 nM | 150 to 1000 nM |
|  | ≤ 150 nM | C=CC(=O)N1CCC(Nc2cc3c(Nc4cc(-c5ccc(F)cc5F)ccc4OC)ncnc3cc2OCC)CC1 [Example 301, 1-(4-((4-((2′,4′-difluoro-4-methoxy-[1,1′-biphenyl]-3-yl)amino)-7-ethoxyquinazolin-6-yl)amino)piperidin-1-yl)prop-2-en-1-one] | ≤ 150 nM | ≤ 150 nM |
